Source: patent publication US20250289808A1 (BenoBio Co., Ltd, priority 2024, published 2025)

Legend:
[1] = target: T1, BRD2 (BD1) (Homo sapiens, UniProt P25440); test: Binding inhibitory effect on BRD2 protein (AlphaScreen, acetyl-histone H4 peptide); conditions: GST-BRD2 (BD1) 100 nM, biotinylated acetyl-histone H4 peptide 100 nM
T1 construct: a bromodomain of BRD2 (BD1) and BRD3 (BD1), one of the BET protein family

[2] = tested on: retinal degeneration mouse model; test: Electroretinogram (ERG) in blue LED-induced retinal degeneration mouse model; format: in vivo, BALB/c mice; conditions: compound 24 nM, Eylea 25 mg/kg; for Wavelength enhanced multiple compared to a normal saline-treated group, Average value: average of a-wave and b-wave; for Wavelength enhanced multiple compared to a normal saline-treated group, a-wave / Wavelength enhanced multiple compared to a normal saline-treated group, b-wave: single intravitreal injection 1 hour after LED exposure
[3] = tested on: macular degeneration animal model; test: Laser-induced macular degeneration mouse model, FFA and OCT imaging; format: in vivo; conditions: day 11, compound 0.022 μg/eye, Eylea 20 μg/eye
Protocol: After the mouse was subjected to general anesthesia, the eye was applied with anesthetic eye drops to be subjected to additional local anesthesia and additionally induce mydriasis. A macular degeneration animal model was prepared by destroying the Bruch's membrane by inducing laser burn according to macular degeneration induction conditions. […] On day 11 of macular degeneration induction, the mice were subjected to general anesthesia and then injected intraperitoneally with a fluorescent contrast agent. The mouse was placed on the sacrifice table, lubricating gel was dropped into the corresponding eye, and an OCT lens was brought into contact with the mouse's cornea. Image analysis for fluorescein fundus angiography (FFA) and OCT was performed using the Image-J program.

[4] = target: T2, BRD3 (BD1) (Homo sapiens, UniProt Q15059); test: Binding inhibitory effect on BRD3 protein (AlphaScreen, same manner as 1-1); conditions: same manner as Experimental Example 1-1
T2 construct: a bromodomain of BRD2 (BD1) and BRD3 (BD1), one of the BET protein family; GST
T2 sequence (Q15059 34-140 limits assumed): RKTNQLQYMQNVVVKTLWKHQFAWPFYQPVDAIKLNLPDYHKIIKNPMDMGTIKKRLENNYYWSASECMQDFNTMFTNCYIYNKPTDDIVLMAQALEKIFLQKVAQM

T1 sequence (P25440 74-180 limits assumed): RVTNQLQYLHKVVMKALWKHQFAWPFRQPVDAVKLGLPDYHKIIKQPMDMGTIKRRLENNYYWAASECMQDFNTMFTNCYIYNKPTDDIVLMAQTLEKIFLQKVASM

With `CC(C)NCc1ccc(-c2ccccc2-c2cccc3c2CN(C)C3=O)o1` [Compound 8, 2-methyl-4-(2-(5-((isopropylamino)methyl)furan-2-yl)phenyl)isoindoline-1-one] the IC50 [1] was 16.6 µM.

For `CN1Cc2c(cccc2-c2ccccc2-c2ccc(CN3CCOCC3)o2)C1=O` [Compound 13, 2-methyl-4-(2-(5-(morpholinomethyl)furan-2-yl)phenyl)isoindoline-1-one], the “Wavelength enhanced multiple compared to a normal saline-treated group, Average value” [2] was 1.33, the “Wavelength enhanced multiple compared to a normal saline-treated group, a-wave” value [2] was 1.29 and the “Wavelength enhanced multiple compared to a normal saline-treated group, b-wave” value [2] was 1.36. For the same compound, the CTF value ([3]; FFA imaging) was 321,816 Pixels, the “Lesion size compared to negative control group” value ([3]; FFA imaging) was 34.96% and the “Lesion size compared to negative control group” value ([3]; OCT imaging) was 57.66%. The Volume of lesion ([3]; OCT imaging) was 1,256,002 μm^3.

With `CN1Cc2c(cccc2-c2ccccc2-c2ccc(CNCc3cnn(C)c3)o2)C1=O` [Compound 18, 2-methyl-4-(2-(5-((((1-methyl-1H-pyrazole-4yl)methyl)amino)methyl)furan-2-yl)phenyl)isoindoline-1-one] the “Wavelength enhanced multiple compared to a normal saline-treated group, Average value” [2] was 2.04, the “Wavelength enhanced multiple compared to a normal saline-treated group, a-wave” value [2] was 2.05 and the “Wavelength enhanced multiple compared to a normal saline-treated group, b-wave” value [2] was 2.03. For the same compound, the CTF value ([3]; FFA imaging) was 389,222 Pixels, the “Lesion size compared to negative control group” value ([3]; FFA imaging) was 42.28% and the “Lesion size compared to negative control group” value ([3]; OCT imaging) was 45.15%. The Volume of lesion ([3]; OCT imaging) was 983,477 μm^3.

For `CNC(=O)C1(Cc2ccc(F)cc2)CCN(Cc2ccc(-c3ccccc3-c3cccc4c3CN(C)C4=O)o2)CC1` [Compound 21, 2-methyl-4-(2-(5-(((4-(4-fluorobenzyl)-4′-carboxamidyl)piperidine)methyl)furan-2-yl)phenyl)isoindoline-1-one], the “Wavelength enhanced multiple compared to a normal saline-treated group, Average value” [2] was 2.30, the “Wavelength enhanced multiple compared to a normal saline-treated group, a-wave” value [2] was 2.17 and the “Wavelength enhanced multiple compared to a normal saline-treated group, b-wave” value [2] was 2.42. For the same compound, the CTF value ([3]; FFA imaging) was 251,239 Pixels, the “Lesion size compared to negative control group” value ([3]; FFA imaging) was 27.29% and the “Lesion size compared to negative control group” value ([3]; OCT imaging) was 40.79%. The Volume of lesion ([3]; OCT imaging) was 888,502 μm^3.

`CNC(=O)C1(C)CN(Cc2ccc(-c3ccccc3-c3cccc4c3CN(C)C4=O)o2)CCC1O` (stereo not shown) [Compound 25] was tested, and the “Wavelength enhanced multiple compared to a normal saline-treated group, Average value” [2] was 1.27, the “Wavelength enhanced multiple compared to a normal saline-treated group, a-wave” value [2] was 1.52 and the “Wavelength enhanced multiple compared to a normal saline-treated group, b-wave” value [2] was 1.01. For the same compound, the CTF value ([3]; FFA imaging) was 300,650 Pixels, the “Lesion size compared to negative control group” value ([3]; FFA imaging) was 32.66% and the “Lesion size compared to negative control group” value ([3]; OCT imaging) was 44.01%. For the same compound, the Volume of lesion ([3]; OCT imaging) was 958,694 μm^3.

Work on `CNC(=O)C1(Cc2ccccc2)CCCN(Cc2ccc(-c3ccccc3-c3cccc4c3CN(C)C4=O)o2)C1` (stereo not shown) [Compound 27] yielded an IC50 [1] of 14.1 µM and an IC50 [4] of 2.54 µM.

With `CNC(=O)CC1C(=O)NCCN1C(=O)c1ccc(-c2ccccc2-c2cccc3c2CN(C)C3=O)o1` (stereo not shown) [Compound 35] the IC50 [1] was 12.3 µM and the IC50 [4] was 1.22 µM.

`CN1Cc2c(cccc2-c2ccccc2-c2ccc(COCN3CCC(F)(F)CC3)o2)C1=O` [Compound 37, 2-methyl-4-(2-(5-((((4,4-difluoropiperidine-1-yl)methoxy)-3-carboxamidyl)methyl)furan-2-yl)phenyl)isoindoline-1-one] was tested, and the “Wavelength enhanced multiple compared to a normal saline-treated group, Average value” [2] was 1.38, the “Wavelength enhanced multiple compared to a normal saline-treated group, a-wave” value [2] was 1.45 and the “Wavelength enhanced multiple compared to a normal saline-treated group, b-wave” value [2] was 1.31. The CTF value ([3]; FFA imaging) was 320,028 Pixels, the “Lesion size compared to negative control group” value ([3]; FFA imaging) was 34.76% and the “Lesion size compared to negative control group” value ([3]; OCT imaging) was 46.40%. The Volume of lesion ([3]; OCT imaging) was 1,010,752 μm^3.

`CNC(=O)C1(Cc2ccc(F)cc2)CCN(Cc2oc(-c3ccccc3-c3cccc4c3CN(C)C4=O)cc2C)CC1` [Compound 39, 2-methyl-4-(2-(5-((3-methyl (4-(4-fluorobenzyl)-4′-carboxamidyl)piperidine)methyl)furan-2-yl)phenyl)isoindoline-1-one] was tested, and the “Wavelength enhanced multiple compared to a normal saline-treated group, Average value” [2] was 1.36, the “Wavelength enhanced multiple compared to a normal saline-treated group, a-wave” value [2] was 1.21 and the “Wavelength enhanced multiple compared to a normal saline-treated group, b-wave” value [2] was 1.51. For the same compound, the CTF value ([3]; FFA imaging) was 252,108 Pixels, the “Lesion size compared to negative control group” value ([3]; FFA imaging) was 27.38% and the “Lesion size compared to negative control group” value ([3]; OCT imaging) was 58.10%. For the same compound, the Volume of lesion ([3]; OCT imaging) was 1,265,636 μm^3.

For `CCC1(C(=O)NC)CCCN(Cc2oc(-c3ccccc3-c3cccc4c3CN(C)C4=O)cc2C)C1` (stereo not shown) [Compound 40], the “Wavelength enhanced multiple compared to a normal saline-treated group, Average value” [2] was 1.30, the “Wavelength enhanced multiple compared to a normal saline-treated group, a-wave” value [2] was 1.16 and the “Wavelength enhanced multiple compared to a normal saline-treated group, b-wave” value [2] was 1.43. For the same compound, the CTF value ([3]; FFA imaging) was 362,456 Pixels, the “Lesion size compared to negative control group” value ([3]; FFA imaging) was 39.37% and the “Lesion size compared to negative control group” value ([3]; OCT imaging) was 54.01%. For the same compound, the Volume of lesion ([3]; OCT imaging) was 1,176,522 μm^3.

In the case of `CNC(=O)CC1C(=O)NCCN1Cc1oc(-c2ccccc2-c2cccc3c2CN(C)C3=O)cc1C` (stereo not shown) [Compound 42, 2-methyl-4-(2-(5-(3-methyl(N-methyl-2-(3-oxopiperazine-2yl)acetamidyl)methyl)furan-2-yl)phenyl)isoindoline-1-one], the “Wavelength enhanced multiple compared to a normal saline-treated group, Average value” [2] is reported as 1.32, the “Wavelength enhanced multiple compared to a normal saline-treated group, a-wave” value [2] is reported as 1.25 and the “Wavelength enhanced multiple compared to a normal saline-treated group, b-wave” value [2] is reported as 1.38. The CTF value ([3]; FFA imaging) was 381,846 Pixels, the “Lesion size compared to negative control group” value ([3]; FFA imaging) was 41.48% and the “Lesion size compared to negative control group” value ([3]; OCT imaging) was 52.86%. The Volume of lesion ([3]; OCT imaging) was 1,151,561 μm^3.
